The subject of assay [1] is CASOB (Sicklepod). In words: Postemergence herbicidal evaluation. Type of assay: in vivo, Cassia obtusifolia. To be noted: postemergence. The essentials:
(§1)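 ~2-wk seedlings; postemergence spray, 40 psi; vehicle 1:1 acetone:water + 0.5% Tween 20; rate ≈0.0156–0.500 kg/ha; greenhouse hold; scored 4–5 wk after treatment, 0–9 scale vs control; repeat tests averaged.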

Assay [2] concerns CHEAL (Lambsquarters, Common). In words: Postemergence herbicidal evaluation. Type of assay: in vivo, Chenopodium album. To be noted: postemergence. In short, it runs like this: as §1
The subject of assay [3] is TRZAWR (Wheat, Winter, cv Riband). In words: Postemergence herbicidal evaluation. The assay is classed as in vivo, Triticum aestivum. Conditions: postemergence. The essentials: as §1
In assay [4] the test system is CHEAL (Lambsquarters, Common). In words: Preemergence herbicidal evaluation. Type of assay: in vivo, Chenopodium album. Conditions: rated 4-5 weeks after treatment. The essentials: (§2)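 Seeds were mixed with potting soil and planted on about one inch of soil, then sprayed with test compound in aqueous acetone at about 0.0156 to 0.500 kg per hectare. Plants grew under standard greenhouse care and were visually rated 0-9 against untreated controls 4-5 weeks post-treatment.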

The test system of assay [5] is ORYSAT (Rice, Tebonnet). In words: Preemergence herbicidal evaluation. The assay is classed as in vivo, Oryza sativa, (L.) Tebonnet. Conditions: rated 4-5 weeks after treatment. The essentials: as §2
[6] abbreviates: rate 0.1250 kg/ha, rating scale 0-9.
Setting [7] is: rate 0.2500 kg/ha, rating scale 0-9.

Turning to `C[C@@H](C(=O)OC(C)(C)C)N1C(=O)CSC1=Nc1cc(-n2c(=O)cc(C(F)(F)F)n(C)c2=O)c(F)cc1Cl` [Compound 75, tert-Butyl 2-{{2-chloro-5-[3,6-dihydro-3-methyl-2,6-dioxo-4-(trifluoromethyl)-1(2H)-pyrimidinyl]-4-fluorophenyl}imino}-α-methyl-4-oxo-3-thiazolidineacetate, L-], the CASOB herbicidal rating in assay [1] (rate 0.0158 kg/ha) is 1.0; in assay [1] (rate 0.0315 kg/ha), 1.0; in assay [1] (rate 0.0630 kg/ha) it was 3.0. The CHEAL herbicidal rating in assay [2] (rate 0.0158 kg/ha), in assay [2] (rate 0.0315 kg/ha) and in assay [2] (rate 0.0630 kg/ha) was 7.0 throughout. Also, the TRZAWR herbicidal rating in assay [3] (rate 0.0158 kg/ha), in assay [3] (rate 0.0315 kg/ha) and in assay [3] (rate 0.0630 kg/ha) was 2.5 each time. For the same molecule, the “Preemergence herbicidal rating CHEAL” value in assay [4] (rate 0.0156 kg/ha), in assay [4] (rate 0.0313 kg/ha), in assay [4] (rate 0.0625 kg/ha), in assay [4] (rate 0.1250 kg/ha) and in assay [4] (rate 0.2500 kg/ha) was 9.0 each time. The “Preemergence herbicidal rating ORYSAT” value in assay [5] (rate 0.0156 kg/ha) was found to be 0.0; in assay [5] (rate 0.0313 kg/ha), 0.0; in assay [5] (rate 0.0625 kg/ha), 0.0; in assay [5] (rate 0.1250 kg/ha) it was 1.0; in assay [5] (rate 0.2500 kg/ha) it was 2.0.
Regarding `CCOC(=O)CN1C(=O)C(Br)SC1=Nc1cc(-n2c(=O)cc(C(F)(F)F)n(C)c2=O)c(F)cc1Cl` (centres unmarked) [Compound 153, Ethyl 5-bromo-2-[{2-chloro-5-[3,6-dihydro-3-methyl-2,6-dioxo-4-(trifluoromethyl)-1(2H)-pyrimidinyl]-4-fluorophenyl}imino}-4-oxo-3-thiazolidineacetate], the “Herbicidal rating CASOB” value in assay [1] (rate 0.0156 kg/ha) was found to be 0.0; in assay [1] (rate 0.0313 kg/ha) it was 0.0; in assay [1] (rate 0.0625 kg/ha), 1.0. The results for the “Herbicidal rating CHEAL” value in assay [2] (rate 0.0156 kg/ha), in assay [2] (rate 0.0313 kg/ha) and in assay [2] (rate 0.0625 kg/ha) were 0.0, 1.0 and 1.0, respectively. In addition, the “Herbicidal rating TRZAWR” value in assay [3] (rate 0.0156 kg/ha) is 2.0; in assay [3] (rate 0.0313 kg/ha), 2.0; in assay [3] (rate 0.0625 kg/ha), 3.0. Besides, the entries for the “Preemergence herbicidal rating CHEAL” value in assay [4] (setting [6]) and in assay [4] (setting [7]) were 1.0 and 7.0, respectively. Also, the “Preemergence herbicidal rating ORYSAT” value in assay [5] (setting [6]) and in assay [5] (setting [7]) was 0.0 each time.
As to `CC(C)OC(=O)CN1C(=O)CSC1=Nc1cc(-n2c(=O)cc(C(F)(F)F)n(C)c2=O)c(F)cc1Cl` [Compound 110], the “Herbicidal rating CASOB” value in assay [1] (rate 0.0158 kg/ha), in assay [1] (rate 0.0315 kg/ha) and in assay [1] (rate 0.0630 kg/ha) was 1.0 in each case. Also, the “Herbicidal rating CHEAL” value in assay [2] (rate 0.0158 kg/ha), in assay [2] (rate 0.0315 kg/ha) and in assay [2] (rate 0.0630 kg/ha) was 9.0 each time. In addition, the “Herbicidal rating TRZAWR” value in assay [3] (rate 0.0158 kg/ha) is listed as 2.5; in assay [3] (rate 0.0315 kg/ha), 3.5; in assay [3] (rate 0.0630 kg/ha) it was 4.0. For the same molecule, the “Preemergence herbicidal rating CHEAL” value in assay [4] (rate 0.0156 kg/ha) is 8.0; in assay [4] (rate 0.0313 kg/ha), 9.0; in assay [4] (rate 0.0625 kg/ha), 9.0; in assay [4] (rate 0.1250 kg/ha), 9.0; in assay [4] (rate 0.2500 kg/ha) it was 9.0; in assay [4] (rate 0.5000 kg/ha), 9.0. Further, the “Preemergence herbicidal rating ORYSAT” value is 0.0 in assay [5] (rate 0.0156 kg/ha); 0.5 in assay [5] (rate 0.0313 kg/ha); 0.5 in assay [5] (rate 0.0625 kg/ha); 1.5 in assay [5] (rate 0.1250 kg/ha); 5.0 in assay [5] (rate 0.2500 kg/ha); 3.0 in assay [5] (rate 0.5000 kg/ha).

The record behind these values is patent US20020137929A1, “1 - (3-heterocyclylphenyl) isothiourea, -isourea, -guanidine and -amidine herbicidal agents” (Intellectual Property Department, BASF Aktiengesellschaft, priority 1998, published 2002).
